Experimental data published in patent publication US10189824B2, “Pyrimidine-diamine dual HSP90/TRAP1 inhibitors” (CalAsia Pharmaceuticals, Inc., priority 2014, dated 2019).

Tests used:
TRAP1 = target: T1, TRAP1 (Homo sapiens, UniProt Q12931); test: Fluorescence polarization (FP) displacement assay, GA-FITC, TRAP1; assay type: binding; details: FP displacement of GA-FITC, 200 nM TRAP1; for Ki: NA: Not active, read-out: Biochemical efficacy TRAP1 Ki; for IC50: read-out: Biochemical efficacy TRAP1 IC50
T1 construct: Recombinant full-length human Hsp90 and 459 TRAP1 were cloned; 6His (TEV-cleavable) (N); made in house; host or cells: E. coli BL21 (DE3)
T1 sequence (Q12931 60-704): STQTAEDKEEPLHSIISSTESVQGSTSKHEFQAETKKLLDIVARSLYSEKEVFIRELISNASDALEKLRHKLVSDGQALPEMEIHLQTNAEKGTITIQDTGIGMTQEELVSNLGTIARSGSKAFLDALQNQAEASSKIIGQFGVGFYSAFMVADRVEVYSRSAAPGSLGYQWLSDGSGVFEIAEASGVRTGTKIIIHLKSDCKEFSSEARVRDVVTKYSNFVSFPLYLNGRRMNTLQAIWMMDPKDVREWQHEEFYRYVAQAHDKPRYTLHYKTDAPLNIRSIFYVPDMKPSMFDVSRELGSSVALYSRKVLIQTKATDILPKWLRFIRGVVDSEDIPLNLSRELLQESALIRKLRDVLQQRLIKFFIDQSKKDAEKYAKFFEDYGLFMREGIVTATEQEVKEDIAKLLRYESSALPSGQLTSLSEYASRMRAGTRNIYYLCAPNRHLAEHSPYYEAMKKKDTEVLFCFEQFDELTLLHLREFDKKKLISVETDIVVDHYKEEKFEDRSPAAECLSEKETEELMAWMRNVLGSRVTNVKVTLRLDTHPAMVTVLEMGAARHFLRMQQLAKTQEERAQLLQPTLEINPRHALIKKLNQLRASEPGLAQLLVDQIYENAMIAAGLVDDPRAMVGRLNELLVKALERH
Description: (§1) Prior to transforming into BL21 (DE3) all the cloned vectors were sequence confirmed. Expressed proteins were purified using NTA resin (Life Technologies) followed by size exclusion chromatography using FPLC. The molecular mass of the purified proteins was confirmed by MALDI-TOF and assessed for purity by SDS-PAGE.
(§2) The assay conditions were 20 mM HEPES, pH-7.5, 50 mM KCl, 5 mM MgCl2, 20 mM sodium molybdate, 2 mM DTT, 0.01% NP40, 100 ug/ml BSA, 50 nM Hsp90 or 200 nM TRAP1, 1% DMSO, and 8 nM (for Hsp90) or 20 nM (for TRAP1) GA-FITC in the presence of increasing concentrations of test compound.

[1] = test system: Hsp90 client proteins (EGFR and Akt1) in Mayo Clinic GBM PDX cell lines; test: Cellular biomarker assays (EGFR, Akt1 ELISA) in Mayo Clinic GBM PDX cell lines; assay type: cell-based; details: 48 hours; three cell lines
[2] = test system: Mayo Clinic patient derived GBM tumor cells; test: Mayo Clinic patient derived GBM tumor cell proliferation; assay type: cell-based; details: 132 hours
Description: (§3) Short-term explant cultures from PDX models were seeded into 96-well Perfecta3D hanging drop plates to form a single spheroid in each well after 2 days. The spheroids were transferred to a round bottom 96 well plate by centrifugation and then incubated with graded concentrations of test compound (8 spheroids per compound concentration). Spheroid volumes were monitored every 6 hours over the course of 5 days using the IncuCyte system (Essen BioScience, MI, US) to provide a growth curve akin to a tumor regrowth assay.

human Hsp90 = test: Fluorescence polarization (FP) displacement assay, GA-FITC, Hsp90; assay type: binding; details: FP displacement of GA-FITC, 50 nM Hsp90; for IC50: read-out: Biochemical efficacy HSP90 IC50; for Ki: read-out: Biochemical efficacy HSP90 Ki
Description: as §1, §2

[3] = test system: Hsp90 client proteins (Akt1, ERK1) in MDA-MB-231 cell line; test: Cellular biomarker assays (Akt1, ERK1 ELISA) in MDA-MB-231; assay type: cell-based; details: 48 hours
Description: (§4) Cellular biomarker assays: Cells were cultured in culture medium (RPMI-glutamax, 10% FCS, 100 units/ml penicillin, and 100 μg/ml streptomycin). Cells were passaged after lifting using 0.25% trypsin/EDTA, and 3×10^5 cells were seeded in each well of six well plates (total volume 2.5 mL/well). After the cells were cultured for 24 hours, increasing concentrations of Hsp90 inhibitor were added to wells in triplicate from DMSO-containing stock solutions and mixed by gently by stirring. Final DMSO concentration in all wells was 0.25%. The treated cells were then cultured for 48 hours prior to lysate preparation. The culture media was removed from wells, and the wells were washed twice with DPBS containing 1 mM CaCl2 and 0.5 mM MgCl2. […] The protein concentration in the cell lysates was determined using the BCA protein assay kit used according to the manufacturer's recommendations. […] Protein concentrations were determined using a micro-titer plate reader (Model # Synergy HT; BioTek Inc., Winooski, Vt.).
(§5) Akt1 and ERK1 levels in the cell lysates were measured using kits from R&D Systems used according to the manufacturer's recommendations. […] Akt1 and ERK1 levels were determined using a micro-titer plate reader (Model # Synergy HT; BioTek Inc., Winooski, Vt.) (FIGS. 5 and 8).

GBM10 = test: Cellular efficacy in Mayo Clinic GBM PDX cell line GBM10; assay type: cell-based
Description: as §3

GBM43 = test: Cellular efficacy in Mayo Clinic GBM PDX cell line GBM43; assay type: cell-based
Description: as §3

GBM39 = test: Cellular efficacy in Mayo Clinic GBM PDX cell line GBM39; assay type: cell-based
Description: as §3

[4] = test system: Hsp90 client proteins (Akt1, ERK1) in HEI193; test: Cellular biomarker assays (Akt1, ERK1 ELISA) in HEI193; assay type: cell-based, human; details: 48 hour treatment
Description: as §4, §5

HEI193 cells = test: TMRE assay, HEI193 cell mitochondrial integrity; assay type: cell-based, human; details: observed as early as 2 hours after treatment
Description: Mitochondrial integrity was evaluated using Tetramethylrhodamine ethyl ester (TMRE) assay. A TMRE assay kit (Abcam) was used to evaluate Hsp90/TRAP1 inhibitor-induced changes in mitochondrial membrane potential. […] TMRE (200 nM) was then added to wells for 30 min and monitored for changes in fluorescence activity using a fluorescence plate reader (ex544/em 590) after washing the cells. Specific TMRE fluorescence was calculated by comparison to matched wells pretreated with the depolarizing proton ionophore carbonyl cyanide 4-(trifluoromethoxy)phenylhydrazone (FCCP) at 20 uM 10 min prior to addition of TMRE. For mitochondria assays, mitochondria was isolated using a kit from Thermoscientific and loaded with 0.1 mM TMRE. TMRE-loaded mitochondria (2 μg per well) were incubated with test compounds and monitored kinetically at 30° C. for changes in fluorescence using a flurorescence plate reader (ex 544/em 590) (FIGS. 6A, 9A and 12).

Row | SMILES | Ki (TRAP1) [nM] | IC50 (TRAP1) [nM] | Effect on EGFR and Akt1 levels, GBM PDX cell lines [1] | Effect on patient derived GBM tumor cell proliferation [2] | IC50 (human Hsp90) [nM] | Ki (human Hsp90) [nM] | Effect on Akt1 and ERK1 levels, MDA-MB-231 [3] | EC50 (GBM10) [nM] | EC50 (GBM43) [nM] | EC50 (GBM39) [nM] | Effect on Akt1 and ERK1 levels, HEI193 [4] | Effect on TMRE fluorescence in HEI193 cells (HEI193 cells)
1 | Cc1cnc(CN(CC2(c3ccc(F)cc3)CCOCC2)c2cc(Cl)nc(N)n2)c(C)c1Cl [Compound B, 6-chloro-4-N-[(4-chloro-3,5-dimethylpyridin-2-yl)methyl]-4-N-{[4-(4-fluorophenyl)oxan-4-yl]methyl}pyrimidine-2,4-diamine] | 11 | 85 | suppression of Hsp90 client proteins | inhibit | 33 | 8 | suppression of Hsp90 client proteins | 1200 | 870 | 620 | reduction of Hsp90 client proteins | –
2 | COc1ccnc(CN(CC2(c3ccc(F)cc3)CCOCC2)c2cc(Cl)nc(N)n2)c1C [Compound C, 6-chloro-4-N-{[4-(4-fluorophenyl)oxan-4-yl]methyl}-4-N-[(4-methoxy-3-methylpyridin-2-yl)methyl]pyrimidine-2,4-diamine] | – | > 4000 | – | – | 87 | 22 | – | – | – | – | – | –
3 | COc1c(C)cnc(CN(CC2(c3cccc(C)n3)CCOCC2)c2cc(Cl)nc(N)n2)c1C [Compound D, 6-chloro-4-N-[(4-methoxy-3,5-dimethylpyridin-2-yl)methyl]-4-N-{[4-(6-methylpyridin-2-yl)oxan-4-yl]methyl}pyrimidine-2,4-diamine] | 68 | 543 | – | – | 54 | 14 | – | – | – | – | – | –
4 | COc1c(C)cnc(CN(CC2(c3ccccn3)CCOCC2)c2cc(Cl)nc(N)n2)c1C [Compound E, 6-chloro-4-N-[(4-methoxy-3,5-dimethylpyridin-2-yl)methyl]-4-N-{[4-(pyridin-2-yl)oxan-4-yl]methyl}pyrimidine-2,4-diamine] | 138 | 1100 | – | – | 96 | 24 | – | – | – | – | – | –
5 | CC(C)c1cc(-c2n[nH]c(=O)n2-c2ccc3c(ccn3C)c2)c(O)cc1O [Ganetespib, reference compound] | – | – | – | – | – | – | – | – | – | – | – | significantly weaker response
